In patent publication US10364263B2, “Cyclic phosphates and cyclic phosphoramidates for the treatment of neurologic disorders” (Retrophin, Inc., priority 2015, dated 2019):
Like-named read-outs stand apart in the source and are kept apart here.

How the values were obtained:
[1] = Stability in human hepatocytes; type: in vitro ADME; conditions: for half-life at 5 µM: t1/2, Human Hepatocytes; for half-life: 5 μM, 1 million cells/ml, 37° C., human hepatocytes
Protocol: (§1) Stability in hepatocytes for select compounds disclosed in the application was evaluated in two species (mouse and human) according to the following procedure. Compounds and positive control samples were dissolved in 100% DMSO at 5 mM. Cryopreserved hepatocytes were thawed and resuspended in Hepatocyte Basal Medium (HBM-Lonza CC-3199) supplemented with CC-4182 (complete hepatocyte culture medium). Test compounds were diluted into cell suspension (1 million cells/ml) from the stock solutions to have a test compound concentration of 5 μM (0.1% DMSO). Incubation was performed in 24-well plates, at 37° C. in a DUBNOFF water bath, under low shaking. Each compound was tested at 6 time points, in duplicates (0, 15, 30, 60, 120 and 240 min). At each time point, an aliquot of 120 μl was taken and transferred to a 96-well deep plate. The reaction was stopped with the addition of one volume of 100% acetonitrile plus 0.1% formic acid and the appropriate internal standard. Then samples were centrifuged at 1100×g for 30 min at +4° C. and supernatants were transferred to a new 96-deepwell plate. Samples were evaporated under N2 and reconstituted in H2O/ACN 0.1% Formic Acid (98:2). Analysis was performed without a calibration curve (Acquity UPLC-Waters; Sciex API4000). Time 0 was obtained adding acetonitrile before addition of the test compound. […] The half-life (t1/2) expressed in hours is derived using Equation 1 as shown in Example 64.

[2] = Stability in mouse plasma; type: in vitro ADME
Outline: (§2)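 Test compound at 3 μM (0.1% DMSO) was incubated in mouse or human plasma at 37 °C and sampled in duplicate at 0, 10, 20, 30, 40 and 60 min. Reactions were stopped with acetonitrile/formic acid containing internal standard. Remaining parent was measured by UPLC-MS/MS without a calibration curve.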

[3] = test system: PANK2 silenced human neuroblastoma IMR32 cells (PANK2−/−); assay: Coenzyme A assay in PANK2 silenced cells (LC-MS quantification of free CoA); type: cell-based; conditions: compound added twice (24 h + 24 h), relative to 0.1% DMSO controls
Outline: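 Free intracellular CoA was measured by positive-mode LC-MS/MS of 20% TFA extracts, taking 2 μl per 10^6 cells as intracellular volume. Cells were IMR32 with stable lentiviral PANK2 knockdown, dosed twice 24 h apart (48 h total, 0.1% DMSO). Output is fold increase over vehicle.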

[4] = Stability in mouse hepatocytes; type: in vitro ADME
Protocol: as §1

[5] = Stability in human plasma; type: in vitro ADME; conditions: 37° C.
Outline: as §2

[6] = t1/2, Mouse Hepatocytes, Diastereoisomer A
[7] = t1/2, Mouse Hepatocytes, Diastereoisomer B
[8] = human, plasma, Diastereoisomer A (upfield shift in 31P NMR), read-out: t1/2, Human Plasma, Diastereoisomer A (converted)
[9] = human, plasma, Diastereoisomer B, read-out: t1/2, Human Plasma, Diastereoisomer B (converted)
[10] = Diastereoisomer A (upfield shift in 31P NMR), read-out: t1/2, Human Hepatocytes, Diastereoisomer A (converted)
[11] = Diastereoisomer A (upfield shift in 31P NMR), 3 μM, 37° C., mouse plasma, read-out: t1/2, Mouse Plasma, Diastereoisomer A
[12] = Diastereoisomer A (upfield shift in 31P NMR), 5 μM, 1 million cells/ml, 37° C., mouse hepatocytes, read-out: t1/2, Mouse Hepatocytes, Diastereoisomer A (converted)
[13] = Diastereoisomer A (upfield shift in 31P NMR), read-out: t1/2, Human Plasma, Diastereoisomer A (converted)

Compound	half-life at 5 µM ([1]; Diastereoisomer A)	half-life at 5 µM ([1]; Diastereoisomer B)	half-life at 3 µM ([2]; mouse, plasma)	t1/2, Mouse Plasma, Diastereoisomer B ([2]; mouse, plasma, 3 µM)	PANK2−/− CoA (Fold Increase): fold increase in Coenzyme A (CoA) levels relative to controls [3]	half-life at 5 µM [4, 6]	half-life at 5 µM [4, 7]	half-life at 3 µM [5, 8]	half-life at 3 µM [5, 9]	half-life [1, 10]	half-life at 3 µM [2, 11]	half-life at 5 µM [4, 12]	half-life at 3 µM [5, 13]	half-life ([1]; Diastereoisomer B, read-out: t1/2, Human Hepatocytes, Diastereoisomer B (converted))	t1/2, Mouse Plasma, Diastereoisomer B ([2]; Diastereoisomer B, 3 μM, 37° C., mouse plasma)	half-life at 5 µM ([4]; Diastereoisomer B, 5 μM, 1 million cells/ml, 37° C., mouse hepatocytes, read-out: t1/2, Mouse Hepatocytes, Diastereoisomer B (converted))	t1/2, Human Plasma, Diastereoisomer B ([5]; Diastereoisomer B, 3 μM)
COC(=O)CCNC(=O)[C@@H]1OP(=O)(N[C@@H](Cc2ccc(OC(C)(C)C)cc2)C(=O)OC(C)(C)C)OCC1(C)C (stereo partly drawn) [compound 15]	18.6 min	< 15 min	< 9.6 min	<9.6 min	0.5 Fold Increase	< 15 min	< 15 min	> 60 min	> 60 min	–	–	–	–	–	–	–	–
COC(=O)CCNC(=O)[C@@H]1OP(=O)(N[C@@H](Cc2cncs2)C(=O)OCc2ccccc2)OCC1(C)C (stereo partly drawn) [compound 29, benzyl (2S)-2-(((4R)-4-((3-methoxy-3-oxopropyl)carbamoyl)-5,5-dimethyl-2-oxido-1,3,2-dioxaphosphinan-2-yl)amino)-3-(thiazol-5-yl)propanoate]	36 min	15.6 min	< 9.6 min	<9.6 min	1.17 Fold Increase	< 15 min	< 15 min	> 60 min	> 60 min	–	–	–	–	–	–	–	–
COC(=O)CCNC(=O)[C@@H]1OP(=O)(OC(C)OC(=O)c2ccccc2)OCC1(C)C (stereo partly drawn) [compound 98, 1-(((4R)-4-((3-methoxy-3-oxopropyl)carbamoyl)-5,5-dimethyl-2-oxido-1,3,2-dioxaphosphinan-2-yl)oxy)ethyl benzoate]	< 15 min	< 15 min	< 9.6 min	<9.6 min	4.01 Fold Increase	< 15 min	< 15 min	> 60 min	18 min	–	–	–	–	–	–	–	–
COC(=O)CCNC(=O)[C@@H]1OP(=O)(N[C@@H](Cc2ccccc2)C(=O)OC(C)(C)C)OCC1(C)C (stereo partly drawn) [compound 4]	–	–	–	–	1.2 Fold Increase	–	–	–	–	26.4 min	< 9.6 min	34.8 min	> 60 min	–	–	–	–
COC(=O)CCNC(=O)[C@@H]1OP(=O)(N[C@H](C(=O)OC(C)(C)C)C2CCCCC2)OCC1(C)C (stereo partly drawn) [compound 14, methyl 3-((4R)-2-(((S)-2-(tert-butoxy)-1-cyclohexyl-2-oxoethyl)amino)-5,5-dimethyl-2-oxido-1,3,2-dioxaphosphinane-4-carboxamido)propanoate]	17.4 min	< 15 min	< 9.6 min	<9.6 min	1.59 Fold Increase	< 15 min	< 15 min	> 60 min	> 60 min	–	–	–	–	–	–	–	–
COC(=O)CCNC(=O)[C@@H]1OP(=O)(OCOC(=O)c2ccc(CN3CCCC3)cc2)OCC1(C)C (stereo partly drawn) [Compound No. 76, (((4R)-4-((3-methoxy-3-oxopropyl)carbamoyl)-5,5-dimethyl-2-oxido-1,3,2-dioxaphosphinan-2-yl)oxy)methyl 4-(pyrrolidin-1-ylmethyl)benzoate]	31.2 min	< 15 min	< 9.6 min	<9.6 min	79.95 Fold Increase	< 15 min	< 15 min	< 9.6 min	< 9.6 min	–	–	–	–	–	–	–	–
COC(=O)CCNC(=O)[C@@H]1OP(=O)(N[C@H](C(=O)OC)C(C)C)OCC1(C)C (stereo partly drawn) [compound 1, (2S)-methyl 2-(((4R)-4-((3-methoxy-3-oxopropyl)carbamoyl)-5,5-dimethyl-2-oxido-1,3,2-dioxaphosphinan-2-yl)amino)-3-methylbutanoate]	–	–	–	–	1.51 Fold Increase	–	–	–	–	77.4 min	< 9.6 min	25.8 min	> 60 min	78.6 min	<9.6 min	< 15 min	>60 min
COC(=O)CCNC(=O)[C@@H]1O[P@](=O)(OCOC(=O)C(C)(C)C)OCC1(C)C (single isomer, unassigned) [Compound No. 89]	< 15 min	–	< 9.6 min	–	154.1 Fold Increase	< 15 min	–	< 9.6 min	–	–	–	–	–	–	–	–	–
COC(=O)CCNC(=O)[C@@H]1OP(=O)(N[C@@H](Cc2cccnc2)C(=O)OC)OCC1(C)C (stereo partly drawn) [compound 25, (2S)-methyl 2-(((4R)-4-((3-methoxy-3-oxopropyl)carbamoyl)-5,5-dimethyl-2-oxido-1,3,2-dioxaphosphinan-2-yl)amino)-3-(pyridin-3-yl)propanoate]	> 240 min	–	< 9.6 min	–	0.95 Fold Increase	36 min	–	> 60 min	–	–	–	–	–	–	–	–	–
CC(C)(C)C(=O)OCO[P@@]1(=O)OCC(C)(C)[C@H](C(=O)NCCC(=O)OCCS(C)(=O)=O)O1 (single isomer, unassigned) [Compound No. 78]	26.4 min	19.8 min	< 9.6 min	<9.6 min	120.6 Fold Increase	< 15 min	< 15 min	> 60 min	< 9.6 min	–	–	–	–	–	–	–	–
CC(C)(C)C(=O)OCOP1(=O)OCC(C)(C)[C@H](C(=O)NCCC(=O)OCc2ccncc2)O1 (stereo in doubt) [Compound No. 71, (((2S,4R)-5,5-dimethyl-2-oxido-4-((3-oxo-3-(pyridin-4-ylmethoxy)propyl)carbamoyl)-1,3,2-dioxaphosphinan-2-yl)oxy)methyl pivalate]	< 15 min	< 15 min	< 9.6 min	<9.6 min	39.37 Fold Increase	< 15 min	< 15 min	> 60 min	< 9.6 min	–	–	–	–	–	–	–	–
COC(=O)CCNC(=O)[C@@H]1OP(=O)(N[C@H](C)C(=O)OCCc2ccccc2)OCC1(C)C (stereo partly drawn) [compound 26, methyl 3-((4R)-5,5-dimethyl-2-oxido-2-(((R)-1-oxo-1-phenethoxypropan-2-yl)amino)-1,3,2-dioxaphosphinane-4-carboxamido)propanoate]	18.6 min	< 15 min	< 9.6 min	<9.6 min	2.29 Fold Increase	< 15 min	< 15 min	> 60 min	> 60 min	–	–	–	–	–	–	–	–
CCC(CC)C(=O)OCOP1(=O)OCC(C)(C)[C@H](C(=O)NCCC(=O)OC)O1 (stereo partly drawn) [Compound No. 67, (((4R)-4-((3-methoxy-3-oxopropyl)carbamoyl)-5,5-dimethyl-2-oxido-1,3,2-dioxaphosphinan-2-yl)oxy)methyl 2-ethylbutanoate]	< 15 min	< 15 min	< 9.6 min	<9.6 min	122.4 Fold Increase	< 15 min	< 15 min	> 60 min	< 9.6 min	–	–	–	–	–	–	–	–
